Laboratory results as given in BindingDB's records for doi:10.1016/j.bmcl.2018.10.045 (Merck, 2019).

Columns and labels:
[1] = Inhibition of NS5B polymerase in HCV genotype 2B infected in HuH7 cells after 40 hrs by Taqman probe based RT-PCR analysis
[2] = Inhibition of NS5B polymerase S365A mutant in HCV genotype 1A infected in HuH7 cells after 40 hrs by Taqman probe based RT-PCR analysis
[3] = Inhibition of NS5B polymerase C316Y mutant in HCV genotype 1A infected in HuH7 cells after 40 hrs by Taqman probe based RT-PCR analysis
[4] = Inhibition of NS5B polymerase in HCV genotype 1b infected in HuH7 cells after 40 hrs by Taqman probe based RT-PCR analysis
[5] = Inhibition of NS5B polymerase in HCV genotype 3A infected in HuH7 cells after 40 hrs by Taqman probe based RT-PCR analysis
[6] = Inhibition of NS5B polymerase in HCV genotype 4A infected in HuH7 cells after 40 hrs by Taqman probe based RT-PCR analysis
[7] = Inhibition of NS5B polymerase in HCV genotype 2A infected in HuH7 cells after 40 hrs by Taqman probe based RT-PCR analysis
[8] = Inhibition of NS5B polymerase in HCV genotype 1a infected in HuH7 cells after 40 hrs by Taqman probe based RT-PCR analysis
[9] = Inhibition of NS5B polymerase E1202G/T1280I/S2197P mutant in HCV genotype 2a infected in human HuH7 replicon cells after 72 hrs in presence of 10% FBS by luciferase-based reporter assay
[10] = Inhibition of NS5B polymerase E1202G/T1280I/S2197P mutant in HCV genotype 1a infected in human HuH7 replicon cells after 72 hrs in presence of 10% FBS by luciferase-based reporter assay
[11] = Inhibition of NS5B polymerase E1202G/T1280I/S2197P mutant in HCV genotype 1b infected in human HuH7 replicon cells after 72 hrs in presence of 50% human serum by luciferase-based reporter assay
[12] = Inhibition of NS5B polymerase E1202G/T1280I/S2197P mutant in HCV genotype 1b infected in human HuH7 replicon cells after 72 hrs in presence of 10% FBS by luciferase-based reporter assay

| Structure (SMILES) | EC50 [1] [nM] | EC50 [2] [nM] | EC50 [3] [nM] | EC50 [4] [nM] | EC50 [5] [nM] | EC50 [6] [nM] | EC50 [7] [nM] | EC50 [8] [nM] | EC50 [9] [nM] | EC50 [10] [nM] | EC50 [11] [nM] | EC50 [12] [nM] |
| --- | --- | --- | --- | --- | --- | --- | --- | --- | --- | --- | --- | --- |
| CNC(=O)c1c(-c2ccc(F)cc2)oc2cc(N(C)S(C)(=O)=O)c(-c3ccc4c(n3)-c3cc5c(F)cccc5n3C4)cc12 [US9243002, 88] | 3.9 | 34 | 9.5 | 5.1 | 3 | 2.7 | 8.5 | 2.2 |  |  |  |  |
| CNC(=O)c1c(-c2ccc(F)cc2)oc2cc(N(C)S(C)(=O)=O)c(-c3ccc4c(n3)-c3cc5c(F)cccc5n3CCCC4)cc12 [US9243002, 99] | 3.8 | 42 | 13 | 5.2 | 1.9 | 3.5 | 26 | 2 |  |  |  |  |
| CNC(=O)c1c(-c2ccc(F)cc2)oc2cc(N(C)S(C)(=O)=O)c(-c3ccc4c(n3)-c3cc5c(F)cccc5n3CN4)cc12 | 2.9 | 3.1 | 7.6 | 1.8 | 1 | 1.1 | 5.7 | 0.9 | 6.4 | 5.3 | 46 | 5.3 |
| CNC(=O)c1c(-c2ccc(F)cc2)oc2cc(N(C)S(C)(=O)=O)c(-c3ccc4ncn5c6cccc(F)c6cc5c4n3)cc12 | 2.4 | 1 | 3.1 | 1.4 | 1 | 0.63 | 3.4 | 0.68 | 3.3 | 2 | 16 | 3.2 |
| CNC(=O)c1c(-c2ccc(F)cc2)oc2cc(N(C)S(C)(=O)=O)c(-c3ccc4c(n3)-c3cc5c(F)cccc5n3CCC4)cc12 [US9243002, 72] | 6.5 | 16 | 26 | 1.9 | 1.2 | 1.5 | 6.8 | 1.1 |  |  |  |  |
| CNC(=O)c1c(-c2ccc(F)cc2)oc2cc(N(C)S(C)(=O)=O)c(-c3ccc4c(n3)-c3cc5c(F)cccc5n3CC4)cc12 [US9243002, 85] | 2.7 | 6.5 | 8.4 | 2.1 | 1.1 | 1.2 | 6 | 0.86 | 5.7 | 3 | 13 | 3.3 |
| CNC(=O)c1c(-c2ccc(F)cc2)oc2cc(N(C)S(C)(=O)=O)c(-c3ccc4ccn5c6cccc(F)c6cc5c4n3)cc12 [US9243002, 82] | 3.5 | 4.8 | 11 | 2.6 | 1.2 | 1.2 | 6.7 | 0.95 | 6.3 | 2.9 | 30 | 5.5 |
| CNC(=O)c1c(-c2ccc(F)cc2)oc2cc(N(C)S(C)(=O)=O)c(-c3cc4n(c(=O)c3)CCn3c-4cc4c(F)cccc43)cc12 | 2.2 | 6.4 | 9.8 | 1.3 | 0.62 | 1.5 | 11 | 0.61 |  |  |  |  |
